Laboratory results: patent US5478842A, “Ether derivatives having 5-lipoxygenase inhibitory activity” (Zeneca Limited, priority 1993, dated 1995)

What was measured:
[1] = Crystallinity / physical form; type: physicochemical
Description: Such non-crystalline compounds are undesirable when consideration is given toward the preparation, purification, analysis, handling and formulation of larger quantities of the compounds.
In another aspect of the invention we have discovered that certain compounds of the invention are crystalline. The crystalline compounds of the invention are those for which a melting point has been given within the Examples provided hereinafter, for example the compounds of Examples 27 and 28. Thus such compounds are of value when their preparation on a larger scale is required. The purification, analysis and handling of a material is facilitated if it is formed in the crystalline state. It is known, for example, that the removal of solvent residues from non-crystalline, oily materials is problematical. In addition the preparation of a pharmaceutical composition comprising a crystalline material is a conventional procedure. The composition may, for example, be in a form suitable for oral use such as a tablet or capsule; or, for example, in a form suitable for administration by inhalation, for example as a finely divided powder or a microcrystalline form. Such options for the formulation of the material are precluded should it be formed in an oily state.

[2] = molecular target: T1, 5-LO (LTB4) (Homo sapiens, UniProt P09917); assay: Test a): in vitro assay in heparinised human blood challenged with calcium ionophore A23187, LTB4 by radioimmunoassay; type: cell-based
T1 construct: incubating a test compound with heparinised human blood, prior to challenge with the calcium ionophore A23187; from tissue; host or cells: heparinised human whole blood (endogenous enzyme of blood cells)
T1 sequence (P09917 1-674): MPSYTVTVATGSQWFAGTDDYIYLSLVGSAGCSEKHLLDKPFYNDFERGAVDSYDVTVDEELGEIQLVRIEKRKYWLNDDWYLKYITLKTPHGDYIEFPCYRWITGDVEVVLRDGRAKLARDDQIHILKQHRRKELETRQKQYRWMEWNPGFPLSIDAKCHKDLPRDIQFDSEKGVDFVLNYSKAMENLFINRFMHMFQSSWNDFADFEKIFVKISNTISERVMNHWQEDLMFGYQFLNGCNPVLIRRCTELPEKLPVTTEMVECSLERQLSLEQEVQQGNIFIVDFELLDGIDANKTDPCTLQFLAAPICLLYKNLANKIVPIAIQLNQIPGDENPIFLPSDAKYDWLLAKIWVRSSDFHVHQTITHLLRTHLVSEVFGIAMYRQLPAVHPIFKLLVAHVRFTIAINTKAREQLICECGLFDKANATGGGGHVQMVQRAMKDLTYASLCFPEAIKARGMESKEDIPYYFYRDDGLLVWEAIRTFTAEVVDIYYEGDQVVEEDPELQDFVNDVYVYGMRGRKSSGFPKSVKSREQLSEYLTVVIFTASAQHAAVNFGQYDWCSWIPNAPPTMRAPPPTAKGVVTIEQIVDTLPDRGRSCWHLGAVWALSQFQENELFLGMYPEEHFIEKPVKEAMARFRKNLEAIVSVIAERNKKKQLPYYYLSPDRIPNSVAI
Description: a) An in vitro assay system involving incubating a test compound with heparinised human blood, prior to challenge with the calcium ionophore A23187 and then indirectly measuring the inhibitory effects on 5-L0 by assaying the amount of LTB4 using specific radioimmunoassays described by Carey and Forder (F. Carey and R. A. Forder, Prostaglandins, Leukotrienes Med., 1986, 22, 57; Prostaglandins, 1984, 28, 666; Brit. J. Pharmacol. 1985, 84, 34P) which involve the use of a protein-LTB4 conjugate produced using the procedure of Young et alia (Prostaglandins, 1983, 26(4), 605-613). The effects of a test compound on the enzyme cyclooxygenase (which is involved in the alternative metabolic pathway for arachidonic acid and gives rise to prostaglandins, thromboxanes and related metabolites) may be measured at the same time using the specific radioimmunoassay for thromboxane B2(TxB2) described by Carey and Forder (see above). This test provides an indication of the effects of a test compound against 5-L0 and also cyclooxygenase in the presence of blood cells and proteins. It permits the selectivity of the inhibitory effect on 5-L0 or cyclooxygenase to be assessed.

[3] = tested on: hepatic enzymes; assay: Auto-induction on repeat dosing (decrease in C max or AUC); type: in vivo; conditions: repeated dosing to a warm-blooded animal
Description: The result is a decrease on repeat dosing of the quantity of the compound present in the animal's blood stream as shown, for example, by a decrease in the maximum concentration achieved (C max) or, for example, a decrease in the exposure of the animal to the compound as measured by the area under the curve (AUC) of a plot of the concentration of the compound in the blood stream versus time after dosing.

[4] = molecular target: T2, 5-LO (LTB4) (Rattus norvegicus, UniProt P12527); assay: Test c): in vivo zymosan-induced LTB4 liberation in air pouch of male rats, oral; conditions: 3 h; test c)
T2 construct: An in vivo system involving measuring the effects of a test compound administered orally to a group of male rats; from tissue; host or cells: live male rats, zymosan-inflamed subcutaneous air pouch (endogenous enzyme)
T2 sequence (P12527 1-673): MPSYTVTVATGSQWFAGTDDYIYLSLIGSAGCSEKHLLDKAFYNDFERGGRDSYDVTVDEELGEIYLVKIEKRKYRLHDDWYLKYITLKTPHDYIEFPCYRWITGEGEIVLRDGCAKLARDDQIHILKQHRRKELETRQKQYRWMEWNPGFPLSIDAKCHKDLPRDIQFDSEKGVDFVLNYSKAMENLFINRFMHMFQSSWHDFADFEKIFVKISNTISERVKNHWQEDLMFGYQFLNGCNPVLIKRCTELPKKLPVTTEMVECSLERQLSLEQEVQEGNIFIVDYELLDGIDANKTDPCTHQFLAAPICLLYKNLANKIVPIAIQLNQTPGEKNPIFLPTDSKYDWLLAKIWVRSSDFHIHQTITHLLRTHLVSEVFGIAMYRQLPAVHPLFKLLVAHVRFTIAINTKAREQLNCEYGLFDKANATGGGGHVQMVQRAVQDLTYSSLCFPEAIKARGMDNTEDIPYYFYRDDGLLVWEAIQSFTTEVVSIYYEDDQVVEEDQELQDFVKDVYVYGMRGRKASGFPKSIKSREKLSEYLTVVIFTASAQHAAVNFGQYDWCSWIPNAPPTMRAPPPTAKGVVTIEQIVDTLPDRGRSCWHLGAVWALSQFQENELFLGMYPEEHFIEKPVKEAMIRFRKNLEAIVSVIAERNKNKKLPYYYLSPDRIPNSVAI
Description: c) An in vivo system involving measuring the effects of a test compound administered orally to a group of male rats against the liberation of LTB4 induced by zymosan within an air pouch generated within the subcutaneous tissue of the back of the rats. The rats are anaesthetised and air pouches are formed by the injection of sterile air (20 ml). A further injection of air (10 ml) is similarly given after 3 days. At 6 days after the initial air injection the test compound is administered (usually orally as the suspension produced when a solution of the test compound in dimethylsulphoxide is added to hydroxypropylmethylcellulose), followed by the intrapouch injection of zymosan (1 ml of a 1% suspension in physiological saline). After 3 hours the rats are killed, the air pouches are lavaged with physiological saline, and the specific radioimmunoassay described above is used to assay LTB4 in the washings. This test provides an indication of inhibitory effects against 5-L0 in an inflammatory milieu.
Test c): oral ED50 (LTB4) in the range, for example, 0.1-100 mg/kg.

SMILES | crystallinity / physical form [1] | IC50 [2] [nM] | ED50 [4] [mg/kg] | auto-induction [3]
C[C@H]1C[C@@](O)(c2cnc(Sc3ccc4c(c3)CC(=O)N4C)s2)CCO1 [Example 27, (2S,4R)-4-hydroxy-2-methyl-4-[2-(1-methyl-2-oxoindolin-5-ylthio)thiazol-5-yl]tetrahydropyran] | crystalline |  |  | 
C[C@H]1C[C@@](O)(c2csc(Sc3ccc4c(c3)CC(=O)N4C)c2)CCO1 [Example 28, (2S,4R)-4-hydroxy-2-methyl-4-[2-(1-methyl-2-oxoindolin-5-ylthio)thien-4-yl]tetrahydropyran] | crystalline | 20 | ~0.05 | lack to a substantial degree the undesirable property of auto-induction
COC1(c2ccc(Sc3ccc4c(c3)CCC(=O)N4C)s2)CCOCC1 [4-methoxy-4-[5-(1-methyl-2-oxo-1,2,3,4-tetrahydroquinolin-6-ylthio)thien-2-yl]tetrahydropyran, reference compound] |  |  |  | possesses the undesirable property of auto-induction
C[C@H]1C[C@@](O)(c2cc(F)cc(S(=O)(=O)c3ccc4c(c3)CCC(=O)N4C)c2)CCO1 [Example 2, (2S,4R)-4-[5-fluoro-3-(1-methyl-2-oxo-1,2,3,4-tetrahydroquinolin-6-ylsulphonyl)phenyl]-4-hydroxy-2-methyltetrahydropyran] |  | 30 | ~0.15 | 
C[C@H]1C[C@@](O)(c2csc(S(=O)(=O)c3ccc4c(c3)CCC(=O)N4C)c2)CCO1 [Example 9, (2S,4R)-4-hydroxy-2-methyl-4-[2-(1-methyl-2-oxo-1,2,3,4-tetrahydroquinolin-6-ylsulphonyl)thien-4-yl]tetrahydropyran] |  |  |  | lack to a substantial degree the undesirable property of auto-induction

The next lines start with results.

crystallinity / physical form [1] | IC50 [2] [nM] | ED50 [4] [mg/kg] | SMILES | auto-induction [3]
 | 50 | ~0.2 | C[C@H]1C[C@@](O)(c2cnc(Sc3ccc4c(c3)CCC(=O)N4C)s2)CCO1 [Example 3, (2S,4R)-4-hydroxy-2-methyl-4-[2-(1-methyl-2-oxo-1,2,3,4-tetrahydro-quinolin-6-ylthio)thiazol-5-yl]tetrahydropyran] | lack to a substantial degree the undesirable property of auto-induction
viscous oil |  |  | CO[C@]1(c2ccc(Sc3ccc4c(c3)CCC(=S)N4C)s2)CCO[C@@H](C)C1 [(2S,4R)-4-methoxy-2-methyl-4-[5-(1-methyl-2-thioxo-1,2,3,4-tetrahydroquinolin-6-ylthio)thien-2-yl]tetrahydropyran, reference compound] | 
 | 30 | ~0.02 | C[C@H]1C[C@@](O)(c2csc(Sc3ccc4c(c3)CCC(=O)N4C)c2)CCO1 [Example 5, (2S,4R)-4-hydroxy-2-methyl-4-[2-(1-methyl-2-oxo-1,2,3,4-tetrahydroquinolin-6-ylthio)thien-4-yl]tetrahydropyran] | 
